Source: US11208412B2 (DAEGU-GYEONGBUK MEDICAL INNOVATION FOUNDATION, priority 2017, dated 2021)

Key:
Assay in all cases: Kinase selectivity, DiscoverX scanMAX Kinase assay panel (% control)
Assay type in all cases: binding
[1] = target: T1, kinases of the scanMAX Kinase assay panel (Homo sapiens, UniProt Q14164); settings: IKK-epsilon; 1 uM
T1 construct: purchased DiscoverX Co. (contract measurement) scanMAX Kinase assay panel
T1 sequence (Q14164 1-716): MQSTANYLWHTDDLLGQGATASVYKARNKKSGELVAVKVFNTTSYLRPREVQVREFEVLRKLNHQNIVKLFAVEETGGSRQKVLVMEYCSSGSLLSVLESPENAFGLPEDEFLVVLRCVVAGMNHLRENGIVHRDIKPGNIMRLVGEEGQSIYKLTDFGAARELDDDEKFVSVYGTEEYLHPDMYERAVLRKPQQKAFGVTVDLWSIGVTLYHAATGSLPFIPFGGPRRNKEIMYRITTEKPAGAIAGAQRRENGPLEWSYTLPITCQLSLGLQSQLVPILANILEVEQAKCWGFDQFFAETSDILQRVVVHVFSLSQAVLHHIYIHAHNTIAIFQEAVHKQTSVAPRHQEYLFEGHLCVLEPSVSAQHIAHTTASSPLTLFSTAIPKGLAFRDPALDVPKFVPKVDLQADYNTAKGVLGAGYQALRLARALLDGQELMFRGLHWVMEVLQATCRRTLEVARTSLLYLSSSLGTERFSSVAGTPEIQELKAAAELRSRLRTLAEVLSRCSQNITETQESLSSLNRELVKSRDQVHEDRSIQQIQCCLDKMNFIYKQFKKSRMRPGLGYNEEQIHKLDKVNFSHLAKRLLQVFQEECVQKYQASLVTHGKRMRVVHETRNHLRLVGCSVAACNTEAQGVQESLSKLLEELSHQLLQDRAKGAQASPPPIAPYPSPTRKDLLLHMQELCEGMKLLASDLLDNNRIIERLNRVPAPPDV
In short: (§1)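 A 1 uM DMSO solution of compound was applied across the panel kinases, and results were expressed as % control relative to DMSO (100%) and a positive control (0%).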

[2] = target: T2, kinases of the scanMAX Kinase assay panel (Homo sapiens, UniProt Q8N568); settings: DCAMKL2; 1 uM
T2 construct: purchased DiscoverX Co. (contract measurement) scanMAX Kinase assay panel
T2 sequence (Q8N568 whole entry): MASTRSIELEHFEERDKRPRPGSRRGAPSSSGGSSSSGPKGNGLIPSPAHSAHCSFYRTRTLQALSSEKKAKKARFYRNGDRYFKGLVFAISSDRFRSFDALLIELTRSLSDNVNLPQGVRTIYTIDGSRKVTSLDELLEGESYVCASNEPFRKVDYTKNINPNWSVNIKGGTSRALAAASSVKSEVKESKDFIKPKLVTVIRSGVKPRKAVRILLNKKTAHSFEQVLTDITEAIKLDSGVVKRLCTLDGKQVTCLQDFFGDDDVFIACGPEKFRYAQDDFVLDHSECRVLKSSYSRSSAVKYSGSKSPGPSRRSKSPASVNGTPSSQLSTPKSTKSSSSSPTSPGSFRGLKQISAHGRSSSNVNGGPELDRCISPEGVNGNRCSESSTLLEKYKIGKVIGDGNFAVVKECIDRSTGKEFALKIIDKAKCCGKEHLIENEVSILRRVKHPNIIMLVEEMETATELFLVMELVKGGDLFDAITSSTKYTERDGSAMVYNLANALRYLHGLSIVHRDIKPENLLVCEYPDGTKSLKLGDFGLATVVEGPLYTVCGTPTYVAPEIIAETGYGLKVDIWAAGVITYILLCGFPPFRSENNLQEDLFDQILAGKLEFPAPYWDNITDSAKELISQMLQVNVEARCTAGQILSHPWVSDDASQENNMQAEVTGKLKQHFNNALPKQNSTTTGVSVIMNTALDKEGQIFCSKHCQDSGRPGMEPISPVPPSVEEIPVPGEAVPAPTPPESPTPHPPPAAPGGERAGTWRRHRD
In short: as §1

[3] = target: T3, kinases of the scanMAX Kinase assay panel (Homo sapiens, UniProt Q9UM73, C1156Y); settings: ALK(C1156Y); 1 uM
T3 construct: purchased DiscoverX Co. (contract measurement) scanMAX Kinase assay panel
T3 sequence (Q9UM73 19-1620 C1156Y): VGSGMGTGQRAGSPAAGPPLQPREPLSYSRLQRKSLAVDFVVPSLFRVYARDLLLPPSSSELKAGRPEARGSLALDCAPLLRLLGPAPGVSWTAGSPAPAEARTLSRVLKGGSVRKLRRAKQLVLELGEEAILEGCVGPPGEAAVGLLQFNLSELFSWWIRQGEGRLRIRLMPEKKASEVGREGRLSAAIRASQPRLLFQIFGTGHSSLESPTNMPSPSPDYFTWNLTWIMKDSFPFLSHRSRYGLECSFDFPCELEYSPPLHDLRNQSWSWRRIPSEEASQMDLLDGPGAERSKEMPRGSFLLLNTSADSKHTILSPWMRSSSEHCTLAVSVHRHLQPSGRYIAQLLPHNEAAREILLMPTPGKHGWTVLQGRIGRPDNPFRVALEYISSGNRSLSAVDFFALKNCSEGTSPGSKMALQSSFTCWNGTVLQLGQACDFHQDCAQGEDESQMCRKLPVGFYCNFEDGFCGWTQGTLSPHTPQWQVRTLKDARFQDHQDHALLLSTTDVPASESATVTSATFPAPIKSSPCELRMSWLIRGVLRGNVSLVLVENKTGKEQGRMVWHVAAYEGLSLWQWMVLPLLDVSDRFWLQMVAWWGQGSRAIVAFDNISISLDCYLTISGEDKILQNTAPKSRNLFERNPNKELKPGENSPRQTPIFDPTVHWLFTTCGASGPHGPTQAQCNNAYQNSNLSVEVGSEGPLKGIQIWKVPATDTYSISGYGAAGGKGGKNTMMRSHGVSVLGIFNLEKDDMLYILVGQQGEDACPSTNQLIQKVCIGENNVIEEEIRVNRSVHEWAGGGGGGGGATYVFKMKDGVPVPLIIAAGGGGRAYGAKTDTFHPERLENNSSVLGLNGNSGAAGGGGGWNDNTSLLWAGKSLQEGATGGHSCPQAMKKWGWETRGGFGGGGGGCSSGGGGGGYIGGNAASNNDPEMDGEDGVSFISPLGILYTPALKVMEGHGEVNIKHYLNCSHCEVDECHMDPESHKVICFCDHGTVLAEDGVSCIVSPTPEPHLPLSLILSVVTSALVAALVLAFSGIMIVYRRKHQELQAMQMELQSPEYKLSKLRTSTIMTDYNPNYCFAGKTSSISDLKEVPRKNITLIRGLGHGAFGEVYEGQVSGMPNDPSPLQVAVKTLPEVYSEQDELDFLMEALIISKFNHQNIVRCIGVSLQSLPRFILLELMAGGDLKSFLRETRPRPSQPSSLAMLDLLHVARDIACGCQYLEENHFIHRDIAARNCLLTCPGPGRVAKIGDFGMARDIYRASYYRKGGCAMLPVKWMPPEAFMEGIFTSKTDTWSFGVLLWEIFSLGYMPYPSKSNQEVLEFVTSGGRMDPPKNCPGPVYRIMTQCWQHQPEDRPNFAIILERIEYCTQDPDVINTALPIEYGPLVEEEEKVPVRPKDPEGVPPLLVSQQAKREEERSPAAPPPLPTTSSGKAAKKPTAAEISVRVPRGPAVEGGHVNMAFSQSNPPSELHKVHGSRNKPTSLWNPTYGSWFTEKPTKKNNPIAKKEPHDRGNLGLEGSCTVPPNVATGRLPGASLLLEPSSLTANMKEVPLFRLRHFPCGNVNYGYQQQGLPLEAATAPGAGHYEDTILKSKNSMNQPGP
In short: as §1

[4] = target: T4, kinases of the scanMAX Kinase assay panel (Homo sapiens, UniProt P11802); settings: 1 uM
T4 construct: purchased DiscoverX Co. (contract measurement) scanMAX Kinase assay panel
T4 sequence (P11802 whole entry): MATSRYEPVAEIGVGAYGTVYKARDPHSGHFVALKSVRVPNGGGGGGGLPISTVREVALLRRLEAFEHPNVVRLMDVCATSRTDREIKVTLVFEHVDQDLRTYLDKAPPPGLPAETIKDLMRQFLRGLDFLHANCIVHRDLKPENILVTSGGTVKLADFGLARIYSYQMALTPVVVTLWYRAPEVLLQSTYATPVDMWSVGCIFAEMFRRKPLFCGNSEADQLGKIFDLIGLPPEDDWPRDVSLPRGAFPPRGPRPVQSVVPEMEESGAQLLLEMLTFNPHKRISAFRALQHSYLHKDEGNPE
In short: as §1

[5] = target: T5, kinases of the scanMAX Kinase assay panel (Homo sapiens, UniProt Q12866); settings: MERTK; 1 uM
T5 construct: purchased DiscoverX Co. (contract measurement) scanMAX Kinase assay panel
T5 sequence (Q12866 21-999): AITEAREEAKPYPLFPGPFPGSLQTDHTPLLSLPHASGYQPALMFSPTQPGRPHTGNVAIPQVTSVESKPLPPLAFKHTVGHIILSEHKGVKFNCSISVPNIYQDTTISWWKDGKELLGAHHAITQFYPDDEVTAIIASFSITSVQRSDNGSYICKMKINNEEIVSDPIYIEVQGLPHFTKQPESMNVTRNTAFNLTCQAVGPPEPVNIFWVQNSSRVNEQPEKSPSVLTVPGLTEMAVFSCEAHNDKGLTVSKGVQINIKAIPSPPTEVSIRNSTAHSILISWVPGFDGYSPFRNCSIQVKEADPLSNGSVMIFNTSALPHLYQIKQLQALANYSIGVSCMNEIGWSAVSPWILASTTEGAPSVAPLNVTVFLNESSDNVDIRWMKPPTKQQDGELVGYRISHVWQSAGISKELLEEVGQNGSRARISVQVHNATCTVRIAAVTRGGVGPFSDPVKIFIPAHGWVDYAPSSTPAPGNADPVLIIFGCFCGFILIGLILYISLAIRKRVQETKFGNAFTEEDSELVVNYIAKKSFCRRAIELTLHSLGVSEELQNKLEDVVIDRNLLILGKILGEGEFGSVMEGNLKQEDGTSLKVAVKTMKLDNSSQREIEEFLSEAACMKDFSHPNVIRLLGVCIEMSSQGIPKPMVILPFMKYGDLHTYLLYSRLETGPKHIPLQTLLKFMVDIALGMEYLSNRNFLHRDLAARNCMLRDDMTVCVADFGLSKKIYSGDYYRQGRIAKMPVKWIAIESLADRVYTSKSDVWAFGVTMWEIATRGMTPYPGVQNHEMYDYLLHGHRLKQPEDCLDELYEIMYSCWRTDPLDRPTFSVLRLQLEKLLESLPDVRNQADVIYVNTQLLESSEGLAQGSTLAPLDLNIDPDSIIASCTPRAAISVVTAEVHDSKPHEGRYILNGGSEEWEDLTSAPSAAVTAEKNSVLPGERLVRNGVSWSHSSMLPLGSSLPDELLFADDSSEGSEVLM
In short: as §1

| Compound | remaining binding at 1 µM [1] | remaining binding at 1 µM [2] | remaining binding at 1 µM [3] | remaining binding at 1 µM ([4]; CDK4-cyclinD1) | remaining binding at 1 µM ([4]; CDK4-cyclinD3) | remaining binding at 1 µM ([4]; CDK4) | remaining binding at 1 µM [5] |
| --- | --- | --- | --- | --- | --- | --- | --- |
| CCNc1nc(Nc2ccc(C(=O)N3CCC(N4CCOCC4)CC3)cc2OC)nc2[nH]cc(C(F)(F)F)c12 [Example 104, (4-((4-(ethylamino)-5-(trifluoromethyl)-7H-pyrrolo[2,3-d]pyrimidine-2-yl)amino)-3-methoxyphenyl)(4-morpholinopiperidine-1-yl)methanone] | 95% | 93% | 16% | 55% | 53% | 100% | 93% |
| CNc1nc(Nc2ccc(C(=O)N3CCOCC3)cc2OC)nc2[nH]cc(C#N)c12 [Example 1, 2-((2-methoxy-4-(morpholine-4-carbonyl)phenyl)amino)-4-(methylamino)-7H-pyrrolo[2,3-d]pyrimidine-5-carbonitrile] | 98% | 91% | 9.3% | 74% | 96% | 61% | 96% |
| CC1(Nc2nc(Nc3cnn([C@H]4CCN(C5COC5)C[C@@H]4F)c3Cl)nc3[nH]cc(C#N)c23)CC1 [Example 52, 2-((5-chloro-1-((3S,4S)-3-fluoro-1-(oxetane-3-yl)piperidine-4-yl)-1H-pyrazole-4-yl)amino)((1-methylcyclopropyl)amino)-7H-pyrrolo[2,3-d]pyrimidine-5-carbonitrile] | 9.9% | 76% | 0.8% | 59% | 100% | 100% | 0% |
